Earlier results on 5 molecules are cited in US20230398047A1, “COMPOSITION COMPRISING SKIN CARE ACTIVE INGREDIENT AND TWO POLYGLYCERYL FATTY ACID ESTERS” (L'OREAL, priority 2021, published 2023).

The conditions of the series: octan-1-ol/water; values said to be known or calculated.
With `CCOC1=C(O)C(=O)O[C@@H]1[C@@H](O)CO` [3-O-ETHYL ASCORBIC ACID, 3-O-ethyl ascorbic acid], the logP is listed as 3-O-ETHYL ASCORBIC ACID (LogP = −1.3).
Consider `O=C1O[C@H]([C@@H](O)CO)C(O)=C1O[C@H]1O[C@H](CO)[C@@H](O)[C@H](O)[C@H]1O` [ASCORBYL GLUCOSIDE, ascorbyl glucoside], for which the logP result is “ASCORBYL GLUCOSIDE (logP = −3.4)”.
For the molecule `CC(O)C[C@H]1OC[C@@H](O)[C@H](O)[C@H]1O` (stereo partly drawn) [HYDROXYPROPYL TETRAHYDROPYRANTRIOL, C-beta-D-xylopyranoside-2-hydroxpropane], the logP entry is “HYDROXYPROPYL TETRAHYDROPYRANTRIOL (logP = −1.5)”.
For the molecule `NC(=O)c1cccnc1` [NIACINAMIDE, niacinamide, reference compound], the logP result is reported as “NIACINAMIDE (LogP = −0.37)”.
With `CC(c1ccccc1)c1ccc(O)cc1O` (centres unmarked) [PHENYLETHYL RESORCINOL, 4-(1-phenylethyl)-1,3-benzenediol], the logP result is reported as “PHENYLETHYL RESORCINOL(logP = 3.07)”.
